Laboratory results: US20160008339A1, “PSORALEN DERIVATIVES FOR PREVENTING OR TREATING HEART FAILURE OR CARDIAC HYPERTROPHY” (MAX-DELBRUCK-CENTRUM FUR MOLEKULARE MEDIZIN, priority 2012, published 2016)

Key:
[1] = test system: primary neonatal rat cardiomyocytes; assay: Beat frequency of neonatal cardiomyocytes by Fluo-4 calcium measurement; type: cell-based; conditions: Fluo-4, from 100 bpm
Protocol: The frequency of contraction could be determined in a similar manner with a calcium sensor (Fluo-4). In a laser-scanning microscope, Fluo-4 was excited with an argon laser (488 nm) and the emission signals were detected and collected at a wavelength of 505 nm. The fluorescence intensity represented the intracellular concentration of calcium ions. Usually, the line-scan mode was used for image recording, and the line-scan images were recorded with a speed of 1.54 or 1.92 ms per line along the longitudinal axis of the cell. After the sequential image recording, a two-dimensional image with 512×100 lines or 512×2000 lines was generated and saved for later analysis.
Additional calcium measurements were performed. […] The fluorescence dye Fluo-4 was added after 20 min. Fluo-4 is a calcium sensor, which is used for investigating the calcium increase in cells. In cardiomyocytes the dye serves for examining the contractility. During contraction and relaxation, the calcium concentrations differ in the cytosol of cardiomyocytes. The fluorescence intensity of Fluo-4 increases with an increasing calcium concentration, and a decreasing calcium concentration will cause reduced fluorescence intensity. A frequency could be calculated from the fluo-4 fluorescence oscillation by a time depended analysis, wherein the fluorescence was measured over a period of two hours. The ground state at the moment before application (black), the period 10 to 30 sec after application (dark grey) and 70 to 110 sec after application (light grey) were evaluated (FIG. 5). Application refers to the adding of PE or adrenaline. […] The statistical analysis was performed according to the method of analysis of variance (ANOVA).

[2] = test system: primary neonatal cardiomyocytes (α-sceletal muscle actin mRNA); assay: Hypertrophy marker α-actin 1 mRNA by quantitative real-time PCR; type: cell-based, rat; conditions: PE 100 μmol/L, 24 hours
Protocol: Primary neonatal cardiomyocytes were prepared as described above. The cardiomyocytes were stimulated for 24 or 48 hours with 100 μmol/L phenylephrin (PE) or 10 μmol/L isoproterenol (ISO) in absence or presence of 10 μmol/L or 50 μmol/L of compound 31413.
After 24 hours or 48 hour of stimulation, the medium was removed, and every well was washed with 2 ml phosphate buffered saline and fixed with 200 μl TRIzol. The cells were removed from each well and transferred into a 1.5 ml Eppendorf tube, respectively.
For cell breakdown, 40 μl chloroform was added to each Eppendorf tube. The broken cells were centrifuged for 15 min at 1400 g and 4° C. The supernatant containing RNA/DNA was taken, mixed with 100 μl isopropanol and centrifugated for 20 min at 1500 g and 4° C. The supernatant was discarded and the pellet was resuspended in 500 μL ethanol. The RNA from the pellet was purified by chromatography. The concentration of the RNA was determined by NANODROP.
The quantification of the hypertrophy marker α-sceletal muscle actin (α-actin 1) mRNA was performed by quantitative real-time PCR. First, the RNA was transcribed to a cDNA with a SuperScript™III First-Strand Synthesis SuperMix (Invitrogen) and random hexamer primers. The cDNA was amplified in a PCR reaction in an Applied Biosystem StepOne™ Real-Time PCR System. Glycerinealdehydephosphate dehydrogenase and NTC (no template control) was used as controls. All samples were triplicates. The following primers have been used: […]

[3] = test system: primary neonatal rat cardiomyocytes; assay: Beat rate of neonatal cardiomyocytes counted by light microscope; type: cell-based; conditions: PE 100 μmol/L for six hours, from 100 bpm
Protocol: For cultivation of primary neonatal rat cardiomyocytes, hearts of two to three days old rats were obtained and quickly stored on ice in ADS buffer (116.4 mM NaCl, 5.4 mM KC, 5.6 mM dextrose, 10.9 mM NaH2PO4, 405.7 μmol/L MgSO4, 20 mM Hepes, pH 7.3). Under sterile conditions, the hearts were cleaned from blood and vessels, cut into small pieces and transferred into falcon tubes. The ADS buffer was exchanged against an enzyme solution (see table below). Within four cycles each with five ml enzyme solution and an enzyme mix comprising collagenase and pancreatin, isolated cells were released from the tissue (12 min at 37° C. in a water bath with approx. 220 rpm).
The supernatant with the isolated cells was collected, transferred in fetal calf serum (FCS, 2.5 ml on ice) and subsequently centrifugated in FCS (100 g for 3 min at 4° C.). The supernatant of the centrifugation was discarded and the pellet was resuspended in 5 ml cold plating medium. After an additional centrifugation, the pellet was resuspended in 15 ml medium, transferred into a dish and incubated for two hours at 37° C. to allow the settling of the fibroblasts. The cardiomyocytes in the supernatant were counted with a Scepter Handheld Automated Cell Counter and transferred in dishes coated with gelatine. On the following day the medium was changed.
The neonatal cardiomyocytes were seeded in 6-well plates with 1.5×10^6 cell per well. The stimulation with 100 μmol/L phenylephrine (PE) was performed for six or twenty four hours at 37° C. Untreated cells served as control. The effect of compound 31413 on the α-adrenergic stimulation of the cardiomyocytes was determined after incubation with the compound for three hours. To do this, the contraction of the cells was counted within a minute and different conditions were compared.
Isolated neonatal cardiomyocytes were used to investigate the relation between AKAP-Lbc induced RhoA activation and the contractility of the heart. After a chronic stimulation of the α1-adreno receptors (AR) with the specific agonist PE for six hours, the beats of the cardiomyocytes were counted over a period of 15 s and a beat rate per minute (bpm) was calculated. An increase of the beat rate of the cardiomyocytes from 100 bpm to 160 beats per minute could be observed. […] The beat rate of neonatal cardiomyocytes was counted with help of a light microscope.

[4] = biological target: T1, AKAP-Lbc (guanine nucleotide exchange on RhoA) (Homo sapiens, UniProt Q12802); assay: RhoGEF nucleotide exchange assay (GDP against mGTP on RhoA); conditions: IC50 (fifty percent inhibition of nucleotide exchange), 15 min
T1 sequence (Q12802 1994-2333): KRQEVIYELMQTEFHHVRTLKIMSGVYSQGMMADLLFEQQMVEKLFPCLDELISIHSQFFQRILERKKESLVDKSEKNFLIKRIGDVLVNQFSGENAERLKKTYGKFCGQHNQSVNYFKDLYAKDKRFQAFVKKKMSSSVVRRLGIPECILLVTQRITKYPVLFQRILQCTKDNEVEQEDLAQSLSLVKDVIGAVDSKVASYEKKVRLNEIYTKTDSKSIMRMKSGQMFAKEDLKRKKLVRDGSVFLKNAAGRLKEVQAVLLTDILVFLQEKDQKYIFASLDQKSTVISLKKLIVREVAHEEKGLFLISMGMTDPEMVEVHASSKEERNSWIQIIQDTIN

3T3 mouse fibroblasts = assay: LPA-induced stress fibre formation, TRITC-phalloidin fluorescence; type: cell-based; conditions: 3T3 cells, LPA alone (DMSO)
Description: For the initial analysis, 3T3 cells were used to evaluate the cellular effects of the compounds of the present invention. In these cells changes in the cytoskeleton caused by GTPase activation are well observable, because the cells have a G protein coupled receptor for LPA. A stimulation of 3T3 cells with LPA leads to an activation of RhoA and thereby to the formation of fibrillar actin filaments (F-actin, stress fibres). The participation of AKAP-Lbc as an exchange factor for RhoA within the signal transduction via a G protein of the G−12/13 family was shown.
3T3 mouse fibroblasts were seeded on 30 mm cover slips (in 6 well plates) in a cell density of 2×10^5 cells/well. […]
Following that, the cells were washed with phosphate buffer (Dulbecco's Phosphate-Buffered Saline++) and fixed in 2.5% paraformaldehyde in sodium cacodylate buffer (100 mmol/L sodium cacodylate, 100 mmol/L sucrose, pH 7.4) for 15 min. […] For the microscopic investigations, images were taken with two different fluorescence channels. […]
Without LPA stimulation no stress fibres could be identified after addition of DMSO instead of the compounds of the invention (FIG. 2A, a). […] The quantification of the stress fibre formation were performed with the software package ImageJ by the determination of the overall fluorescence of the TRITC-phalloidin. […]

IC50 [4] [µM]	Compound	frequency after stimulation [1] [bpm]	further results
–	CNC[C@H](O)c1cccc(O)c1 [PE, phenylephrine, reference compound]	150	increase in relative amount of α-actin 1 mRNA [2]: threefold increase; beat rate of the cardiomyocytes after stimulation [3]: 160 beats per minute
–	CNCC(O)c1ccc(O)c(O)c1 (stereo not shown) [adrenaline, reference compound]	200	–
78.9	CCCCc1cc(=O)oc2cc3occ(-c4ccc(OC)cc4)c3cc12 [Compound 31892, 5-butyl-3-(4-methoxyphenyl)furo[3,2-g]chromen-7-one]	–	–
–	lysophosphatide acid [LPA, reference compound]	–	formation of stress fibres after stimulation (3T3 mouse fibroblasts): clear formation of stress fibres
39.9	CCCc1cc(=O)oc2cc3occ(-c4ccc(OC)cc4)c3cc12 [Compound 31864, 3-(4-methoxyphenyl)-5-propyl-furo[3,2-g]chromen-7-one]	–	–
